What was measured:
[1] = Stability testing: epimerization of cyclosporin derivatives in methanol, monitored by HPLC; format: physicochemical; settings: Table 9, MeOH at 50° C.-58° C.
HIV-1IIIB = assay: Anti-HIV cytoprotection assay, acute infection model in CEM-SS cells (MTS endpoint); format: cell-based; settings: HIV-1IIIB in CEM-SS cells, 6-day incubation, read-out: Antiviral activity EC50
Experimental: Anti-HIV activity of cyclosporine derivatives were evaluated by cytoprotection assay in an acute infection model using CEM-SS cells and either HIV-1IIIB or HIV-1 RF. Antiviral activity was determined as a reduction in virus-caused cytopathic effects when compounds prevent virus replication. Cytoprotection and compound cytotoxicity were evaluated using the tetrazollium dye MTS (Promega) to calculate cell viability following virus infection after 6-day incubation (Zhou G., et al., 2011, J. Med. Chem. 27, 7220-31; which is incorporated herein by reference).

[2] = system: HCV replicon in cell line ET (luc-ubi-neo/ET), Huh7 human hepatoma cell line; assay: HCV subgenomic replicon assay (luciferase end point); format: cell-based; settings: Table 10, HCV replicon, read-out: Antiviral activity EC50

Molecule | Epimerization % after 168 hours [1] | further results
C/C=C/C[C@@H](C)[C@@H](O)[C@H]1C(=O)N[C@@H](CC)C(=O)N(C)[C@H](CSCCN(C)C)C(=O)N(C)[C@@H](CC(C)(C)O)C(=O)N[C@@H](C(C)C)C(=O)N(C)[C@@H](CC(C)C)C(=O)N[C@@H](C)C(=O)N[C@H](C)C(=O)N(C)[C@@H](CC(C)C)C(=O)N(C)[C@@H](CC(C)C)C(=O)N(C)[C@@H](C(C)C)C(=O)N1C (single isomer, unassigned) [Example 31, isomer B] | 0% | –
C/C=C/C[C@@H](C)[C@@H](O)[C@H]1C(=O)N[C@@H](CC)C(=O)N(C)[C@H](CSCCN(CC)CC)C(=O)N(C)[C@@H](CC(C)(C)O)C(=O)N[C@@H](C(C)C)C(=O)N(C)[C@@H](CC(C)C)C(=O)N[C@@H](C)C(=O)N[C@H](C)C(=O)N(C)[C@@H](CC(C)C)C(=O)N(C)[C@@H](CC(C)C)C(=O)N(C)[C@@H](C(C)C)C(=O)N1C (single isomer, unassigned) [Example 32, isomer B] | 0% | –
C/C=C/C[C@@H](C)[C@@H](O)[C@H]1C(=O)N[C@@H](CC)C(=O)N(C)[C@H](CSCCN(C)C)C(=O)N(C)[C@@H](CC(C)(C)O)C(=O)N[C@@H](C(C)C)C(=O)N(C)[C@@H](CC(C)C)C(=O)N[C@@H](C)C(=O)N[C@H](C)C(=O)N(C)[C@@H](CC(C)C)C(=O)N(C)[C@@H](CC(C)C)C(=O)N(C)[C@@H](C(C)C)C(=O)N1C (single isomer, unassigned; isomer b) | – | EC50 (HIV-1IIIB): 118 nM
CC=CCC(C)C(O)C1C(=O)NC(CC)C(=O)N(C)C(CSCCC(CO)CCC)C(=O)N(C)C(CC(C)(C)O)C(=O)NC(C(C)C)C(=O)N(C)C(CC(C)C)C(=O)NC(C)C(=O)NC(C)C(=O)N(C)C(CC(C)C)C(=O)N(C)C(CC(C)C)C(=O)N(C)C(C(C)C)C(=O)N1C [Example 105, [(S)-((3-(R)-(Hydroxymethyl)hexyl)thio)methyl-Sar]-3-[(γ-hydroxy)-N-MeLeu]-4-cyclosporin] | 0% | –
(S)-2-(N,N-Diethylamino)ethylthio-Sar]-3-[N-MeIle]-4-cyclosporin | – | EC50 [2]: 1870 nM
